Laboratory results published in patent publication US20140045697A1, “ANDROSTANEDIOL DERIVATIVES AS PLANT GROWTH REGULATOR COMPOUNDS” (priority 2011, published 2014).

Assays:
[1] = tested on: Phaseolus vulgaris L. cv. Pinto; assay: Bean second and third internode elongation bioassay (glass house); type: in vivo; details: for % increase compared with control, Total elongation (internode 2 + internode 3) / % increase compared with control, Internode 2 / % increase compared with control, Internode 3: applied through wound site, scored after 10 days; for % increase compared with control, Internode 2 / % increase compared with control, Internode 3: 8 replicates; for elongation of internode 3 (in words) / elongation of internodes by rate (in words): Table 2; for elongation of internode 3 (in words): standard at low concentrations; for elongation of internodes by rate (in words): rates 6, 20 and 200 per plant
Method: Bean seeds of Phaseolus vulgaris L. cv. Pinto were germinated in drench soil in 140 ml pots; pots with 7-day old seedlings were thinned out to one seedling per pot. Young plants of 12-14 days with 2-3 mm long second internodes were used in bioassay screening experiments. Germination, early plant growth as well the screening of growth symptoms of young plants after application of compounds of formula (I) were done under similar glass house conditions: temperature 22° C. day/18° C. night, humidity 60%, day length 15 h day/9 h night. Plants were watered manually on a daily basis, as needed.
Compounds of formula (I) were applied through a wound site using a micropipette. The wound site was introduced through removal of one of the twin leaves of the first set of true leaves. Small amounts of compounds were delivered at a time. The wound site was sealed with […] of Vaseline that was applied using a cotton ear bud. Compounds of formula (I) were dissolved in 99% ethanol and for the control/check a similar volume was used as for all treatments and in this case, the solution only contained 99% ethanol. Dilutions of stock solutions were made with distilled water. Eight replicates were included per treatment, including for the control. The scoring of growth elongation effects was performed after 10 days.
Growth promotion of bean plants by compounds of formula (I) was tested by scoring elongation of the second and third internode of bean plants. Scoring of growth stimulation effects was done by careful cutting and measuring the length of the two internodes. All compounds were tested at three rates (in […] per plant): 6, 20 and 200. Values represent the average percentage increase in stem elongation compared with the untreated control.

[2] = tested on: maize; assay: Field trials on maize at 2 locations in South Africa (Kransfontein, Lindley), spray application at 5-6 leaf growth stage; type: in vivo; details: for Number of cobs per plot / Plant height 9-10 leaf stage / Plant height 10 leaf stage / Yield / Plant height 6-7 leaf stage / Plant height 9 leaf stage: mean of 6 replicates
Method: Field trials were carried out at 2 locations in South Africa on maize. Treatments as shown in tables 3 and 4 were applied by spray application at 5-6 leaf growth stage. Assessments were made of plant height, number of maize cobs per plot, and total maize yield at the end of the trial. The results in Table 3 and 4 are the mean of 6 replicates per treatment. The standard is an analog of the Formula I of the present invention, as described in WO2009/115060 (formula IV).

C[C@]12CCC3[C@@H](CC(F)(F)[C@@]4(F)C[C@H](O)CC[C@]34C)C1CC[C@@H]2O (stereo partly drawn) [Compound P1, 5-Fluoro-6α,6β-difluoro-3α,17β-dihydroxy-5α-androstan]
% increase compared with control, Total elongation (internode 2 + internode 3) ([1]; 6 μg per plant): 0% | % increase compared with control, Internode 2 ([1]; 6 μg per plant): 0% | % increase compared with control, Internode 3 ([1]; 6 μg per plant): 0% | % increase compared with control, Total elongation (internode 2 + internode 3) ([1]; 20 μg per plant): 160% | % increase compared with control, Internode 2 ([1]; 20 μg per plant): 44% | % increase compared with control, Internode 3 ([1]; 20 μg per plant): 116% | % increase compared with control, Total elongation (internode 2 + internode 3) ([1]; 200 μg per plant): 108% | % increase compared with control, Internode 2 ([1]; 200 μg per plant): 30% | % increase compared with control, Internode 3 ([1]; 200 μg per plant): 78% | elongation of internode 3 (in words) [1]: strong elongation of internode 3 | elongation of internodes by rate (in words) [1]: at the highest two rates, but not at the lowest rate

C[C@]12CCC3[C@@H](CC(F)(F)[C@H]4C[C@H](O)CC[C@]34C)C1CC[C@@H]2O (stereo partly drawn) [Compound P2, 6α,6β-difluoro-3α,17β-diol-5α-androstan]
% increase compared with control, Total elongation (internode 2 + internode 3) ([1]; 6 μg per plant): 0% | % increase compared with control, Internode 2 ([1]; 6 μg per plant): 0% | % increase compared with control, Internode 3 ([1]; 6 μg per plant): 0% | % increase compared with control, Total elongation (internode 2 + internode 3) ([1]; 20 μg per plant): 160% | % increase compared with control, Internode 2 ([1]; 20 μg per plant): 50% | % increase compared with control, Internode 3 ([1]; 20 μg per plant): 110% | % increase compared with control, Total elongation (internode 2 + internode 3) ([1]; 200 μg per plant): 54% | % increase compared with control, Internode 2 ([1]; 200 μg per plant): 31% | % increase compared with control, Internode 3 ([1]; 200 μg per plant): 23% | elongation of internode 3 (in words) [1]: strong elongation of internode 3 | elongation of internodes by rate (in words) [1]: at the highest two rates, but not at the lowest rate

CO[C@]12C[C@H](O)CC[C@]1(C)[C@H]1CC[C@]3(C)[C@@H](O)CC[C@H]3[C@@H]1CC2=O [Compound P3, 5-methoxy-3α,17β-dihydroxyl-5α-androstan-6-one]
Number of cobs per plot, % increase compared to untreated control ([2]; Kransfontein, 0.3 g AI/ha): 0.5% | Plant height 9-10 leaf stage, % increase compared to untreated control ([2]; Kransfontein, 0.3 g AI/ha): 6.4% | Plant height 10 leaf stage, % increase compared to untreated control ([2]; Kransfontein, 0.3 g AI/ha): 3.8% | Yield, % increase compared to untreated control ([2]; Kransfontein, 0.3 g AI/ha): 1.7% | Number of cobs per plot ([2]; Kransfontein, 0.3 g AI/ha): 35.0 | Plant height 9-10 leaf stage ([2]; Kransfontein, 0.3 g AI/ha): 38.0 cm | Plant height 10 leaf stage ([2]; Kransfontein, 0.3 g AI/ha): 49.5 cm | Yield ([2]; Kransfontein, 0.3 g AI/ha): 4203.2 kg/ha | Number of cobs per plot, % increase compared to untreated control ([2]; Kransfontein, 0.6 g AI/ha): 7.7% | Plant height 9-10 leaf stage, % increase compared to untreated control ([2]; Kransfontein, 0.6 g AI/ha): 3.1% | Plant height 10 leaf stage, % increase compared to untreated control ([2]; Kransfontein, 0.6 g AI/ha): 4.2% | Yield, % increase compared to untreated control ([2]; Kransfontein, 0.6 g AI/ha): 2.3% | Number of cobs per plot ([2]; Kransfontein, 0.6 g AI/ha): 37.5 | Plant height 9-10 leaf stage ([2]; Kransfontein, 0.6 g AI/ha): 36.8 cm | Plant height 10 leaf stage ([2]; Kransfontein, 0.6 g AI/ha): 49.7 cm | Yield ([2]; Kransfontein, 0.6 g AI/ha): 4227.3 kg/ha | Number of cobs per plot, % increase compared to untreated control ([2]; Lindley, 0.3 g AI/ha): 2.0% | Plant height 6-7 leaf stage, % increase compared to untreated control ([2]; Lindley, 0.3 g AI/ha): 4.8% | Plant height 9 leaf stage, % increase compared to untreated control ([2]; Lindley, 0.3 g AI/ha): 5.9% | Yield, % increase compared to untreated control ([2]; Lindley, 0.3 g AI/ha): 3.3% | Number of cobs per plot ([2]; Lindley, 0.3 g AI/ha): 60.5 | Plant height 6-7 leaf stage ([2]; Lindley, 0.3 g AI/ha): 21.8 cm | Plant height 9 leaf stage ([2]; Lindley, 0.3 g AI/ha): 32.3 cm | Yield ([2]; Lindley, 0.3 g AI/ha): 1115.9 kg/ha | Number of cobs per plot, % increase compared to untreated control ([2]; Lindley, 0.6 g AI/ha): 4.5% | Plant height 6-7 leaf stage, % increase compared to untreated control ([2]; Lindley, 0.6 g AI/ha): 3.4% | Plant height 9 leaf stage, % increase compared to untreated control ([2]; Lindley, 0.6 g AI/ha): 8.9% | Yield, % increase compared to untreated control ([2]; Lindley, 0.6 g AI/ha): 3.1% | Number of cobs per plot ([2]; Lindley, 0.6 g AI/ha): 62.0 | Plant height 6-7 leaf stage ([2]; Lindley, 0.6 g AI/ha): 21.5 cm | Plant height 9 leaf stage ([2]; Lindley, 0.6 g AI/ha): 33.2 cm | Yield ([2]; Lindley, 0.6 g AI/ha): 11099.4 kg/ha | % increase compared with control, Total elongation (internode 2 + internode 3) ([1]; 6 μg per plant): 17% | % increase compared with control, Internode 2 ([1]; 6 μg per plant): 13% | % increase compared with control, Internode 3 ([1]; 6 μg per plant): 4% | % increase compared with control, Total elongation (internode 2 + internode 3) ([1]; 20 μg per plant): 54% | % increase compared with control, Internode 2 ([1]; 20 μg per plant): 6% | % increase compared with control, Internode 3 ([1]; 20 μg per plant): 48% | % increase compared with control, Total elongation (internode 2 + internode 3) ([1]; 200 μg per plant): 113% | % increase compared with control, Internode 2 ([1]; 200 μg per plant): 43% | % increase compared with control, Internode 3 ([1]; 200 μg per plant): 70% | elongation of internode 3 (in words) [1]: strong elongation of internode 3 | elongation of internodes by rate (in words) [1]: elongation of both internodes at all three rates tested

CC(C)[C@@H](C)[C@@H](O)[C@H](O)[C@@H](C)[C@H]1CC[C@H]2[C@@H]3COC(=O)[C@H]4C[C@H](O)[C@H](O)C[C@]4(C)[C@H]3CC[C@]12C [Standard, 24-epi-brassinolide, reference compound]
Number of cobs per plot, % increase compared to untreated control ([2]; Kransfontein, 0.3 g AI/ha): −4.3% | Plant height 9-10 leaf stage, % increase compared to untreated control ([2]; Kransfontein, 0.3 g AI/ha): 1.7% | Plant height 10 leaf stage, % increase compared to untreated control ([2]; Kransfontein, 0.3 g AI/ha): 2.1% | Yield, % increase compared to untreated control ([2]; Kransfontein, 0.3 g AI/ha): −2.8% | Number of cobs per plot ([2]; Kransfontein, 0.3 g AI/ha): 33.3 | Plant height 9-10 leaf stage ([2]; Kransfontein, 0.3 g AI/ha): 36.3 cm | Plant height 10 leaf stage ([2]; Kransfontein, 0.3 g AI/ha): 48.7 cm | Yield ([2]; Kransfontein, 0.3 g AI/ha): 4017.9 kg/ha | Number of cobs per plot, % increase compared to untreated control ([2]; Kransfontein, 0.6 g AI/ha): −2.9% | Plant height 9-10 leaf stage, % increase compared to untreated control ([2]; Kransfontein, 0.6 g AI/ha): 3.6% | Plant height 10 leaf stage, % increase compared to untreated control ([2]; Kransfontein, 0.6 g AI/ha): 3.4% | Yield, % increase compared to untreated control ([2]; Kransfontein, 0.6 g AI/ha): −3.6% | Number of cobs per plot ([2]; Kransfontein, 0.6 g AI/ha): 33.8 | Plant height 9-10 leaf stage ([2]; Kransfontein, 0.6 g AI/ha): 37.0 cm | Plant height 10 leaf stage ([2]; Kransfontein, 0.6 g AI/ha): 49.3 cm | Yield ([2]; Kransfontein, 0.6 g AI/ha): 3985.2 kg/ha | Number of cobs per plot, % increase compared to untreated control ([2]; Lindley, 0.3 g AI/ha): 1.1% | Plant height 6-7 leaf stage, % increase compared to untreated control ([2]; Lindley, 0.3 g AI/ha): 3.4% | Plant height 9 leaf stage, % increase compared to untreated control ([2]; Lindley, 0.3 g AI/ha): 1.6% | Yield, % increase compared to untreated control ([2]; Lindley, 0.3 g AI/ha): 2.0% | Number of cobs per plot ([2]; Lindley, 0.3 g AI/ha): 60.0 | Plant height 6-7 leaf stage ([2]; Lindley, 0.3 g AI/ha): 21.5 cm | Plant height 9 leaf stage ([2]; Lindley, 0.3 g AI/ha): 31.0 cm | Yield ([2]; Lindley, 0.3 g AI/ha): 10976.9 kg/ha | Number of cobs per plot, % increase compared to untreated control ([2]; Lindley, 0.6 g AI/ha): 2.5% | Plant height 6-7 leaf stage, % increase compared to untreated control ([2]; Lindley, 0.6 g AI/ha): 1.9% | Plant height 9 leaf stage, % increase compared to untreated control ([2]; Lindley, 0.6 g AI/ha): 2.6% | Yield, % increase compared to untreated control ([2]; Lindley, 0.6 g AI/ha): 1.2% | Number of cobs per plot ([2]; Lindley, 0.6 g AI/ha): 60.8 | Plant height 6-7 leaf stage ([2]; Lindley, 0.6 g AI/ha): 21.2 cm | Plant height 9 leaf stage ([2]; Lindley, 0.6 g AI/ha): 31.3 cm | Yield ([2]; Lindley, 0.6 g AI/ha): 10890.5 kg/ha | % increase compared with control, Total elongation (internode 2 + internode 3) ([1]; 6 μg per plant): 154% | % increase compared with control, Internode 2 ([1]; 6 μg per plant): 150% | % increase compared with control, Internode 3 ([1]; 6 μg per plant): 4% | elongation of internode 3 (in words) [1]: almost no elongation of the third internode
